Reference: patent US7642059B2, “Single receptor assays for immunosuppressive drugs” (Roche Diagnostics Operations, Inc., priority 2005, dated 2010)

Columns and labels:
FKBP25 [1] = target: T1, FKBP25 (Homo sapiens, UniProt Q00688); settings: FKBP25, rotamase assay; cited from earlier work
T1 sequence (Q00688 1-224): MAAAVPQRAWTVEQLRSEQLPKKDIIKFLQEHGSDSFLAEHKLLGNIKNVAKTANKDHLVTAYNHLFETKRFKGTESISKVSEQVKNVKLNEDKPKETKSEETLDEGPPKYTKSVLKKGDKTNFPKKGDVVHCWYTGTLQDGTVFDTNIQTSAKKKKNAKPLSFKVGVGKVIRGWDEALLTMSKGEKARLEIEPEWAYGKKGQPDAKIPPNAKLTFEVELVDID

FKBP14 = settings: cited from earlier work
FKBP25 [2] = target: T1, FKBP25; assay: FKBP25 microparticle / rapamycin-aminodextran agglutination assay (cross-reactivity); format: binding
Procedure: A first working reagent (R1 reagent) was prepared by making 175 mM PIPES buffer, pH 7.4. To this was added rapamycin-aminodextran conjugate to give a concentration of 400 ng/mL. To this was also added polyacrylic acid to give a concentration of 1.3%.
A second working reagent (R2 reagent) was prepared as described in Example 12 and used at final concentration of 0.14% (w/v) in 50 mM MOPS buffer at pH 7.9.
A stock solution of rapamycin was made (100 μg/mL) in DMSO. Calibrators were prepared from the stock by making solution of 50, 100 and 200 ng/mL of rapamycin in 0.9% saline solution.
An assay was performed using a Hitachi 917 automated analyzer (Roche Diagnostics Corporation, Indianapolis) using a 35 μL sample volume, 180 μL of the first working reagent and 80 μL of the second working reagent (measured OD at 800 nm).
Known quantities of tacrolimus were then assayed as above. By comparing the observed reading from the rapamycin curve obtained to the actual amount of tacrolimus in the samples assayed, tacrolimus cross-reactivity was determined to be 7% in this assay. That is, a sample containing 1000 ng/ml tacrolimus gave a reading from the curve of 70 ng/ml rapamycin. Cross-reactivity is thus (70/1000)×100%=7%.

cross-reactivity (FKBP25 [2]; read from rapamycin curve, Hitachi 917, OD at 800 nm)	reading from the curve as rapamycin (FKBP25 [2]; sample containing 1000 ng/ml tacrolimus)	SMILES	Ki (FKBP25 [1])	Kd (FKBP14)	fold lower Kd for tacrolimus than sirolimus (FKBP14)
–	–	CO[C@H]1C[C@@H]2CC[C@@H](C)[C@@](O)(O2)C(=O)C(=O)N2CCCC[C@H]2C(=O)O[C@H]([C@H](C)C[C@@H]2CC[C@@H](O)[C@H](OC)C2)CC(=O)[C@H](C)/C=C(\C)[C@@H](O)[C@@H](OC)C(=O)[C@H](C)C[C@H](C)/C=C/C=C/C=C/1C [rapamycin]	0.9 nM	–	–
7%	70 ng/mL	C=CC[C@@H]1/C=C(\C)C[C@H](C)C[C@H](OC)[C@H]2O[C@@](O)(C(=O)C(=O)N3CCCC[C@H]3C(=O)O[C@H](/C(C)=C/[C@@H]3CC[C@@H](O)[C@H](OC)C3)[C@H](C)[C@@H](O)CC1=O)[C@H](C)C[C@@H]2OC [tacrolimus]	200 nM	1.8 nM	about 20 fold
